The text below walks through data of paper PMC9450014, “The evaluation of ADME and pharmacokinetic properties of decoquinate derivatives for the treatment of malaria” (Frontiers in Pharmacology, 2022).

Read-outs that look alike come from different tables or passages of the source.

Data set [1] relates to Pf NF54. The settings on record: ref Beteck et al., 2018, cited from earlier work.
Data set [2] can be described thus: Non-specific liver microsomal binding, HLM. The settings on record: human liver microsomes. The format is in vitro ADME. As for the experimental part:
(§1) Plasma protein binding was determined in pooled human plasma using an ultracentrifugation method. Stock solutions of test compounds were diluted in phosphate buffer and spiked into plasma in deep well 96-well plates. An aliquot of each compound was immediately precipitated with ice cold acetonitrile containing the internal standard carbamazepine (0.1 μM). These served as total concentration samples. After incubation in a water bath (37°C for 1 h), samples were transferred to ultracentrifuge tubes in duplicate and centrifuged for 4 h at 37°C and 30,000 g (Optima L-80XP, Beckman). Following centrifugation, the supernatant was transferred to the plate containing the total concentration samples and precipitated with ice cold acetonitrile containing the internal standard. Samples were analysed by LC-MS/MS (Shimadzu HPLC coupled with an AB Sciex 3200 Q TRAP MS). Non-specific binding in mouse liver microsomes (MLM) and human liver microsomes (HLM) were also determined with the ultracentrifugation method. Stock solutions of compounds (10 mM) were added in duplicate to microsome solution (0.5 mg/mL) in phosphate buffer (pH 7.4) to obtain a final drug concentration of 1 μM. The same method as for plasma protein binding was utilized. Analyte concentrations of all compounds were determined via LC-MS/MS (reverse phase Gemini NX-C18 column and Shimadzu HPLC coupled with an AB Sciex 3200 Q TRAP MS).
(Microsomes from liver hold many membrane-bound enzymes, among them those of drug oxidation.)

Data set [3] in a line: Lipophilicity, 1-octanol/phosphate buffer pH 7.4 (LogD7.4). The format is physicochemical. As for the experimental part: Stock solutions ([…]) of compounds were diluted to 100 μM in 96-well deep-well plate containing 1-octanol and phosphate buffer at pH 7.4. The plate was agitated on an orbital shaker at 750 rpm for 2 h. The organic and buffer layers of each well were transferred separately to a new analysis plate. The samples were analysed with the HPLC-diode array detection as described for kinetic solubility. Samples from both layers were analysed to determine LogD7.4 values.

Data set [4] can be described thus: Passive permeability, parallel artificial membrane permeation assay (PAMPA). It counts as in vitro ADME. Conditions: donor pH 6.5, acceptor pH 7.4, 4 h, read-out: Permeability (LogPapp) (converted). As for the experimental part: A parallel artificial membrane permeation assay (PAMPA) was used to assess the passive permeability of compounds with a 96-well MultiScreen filter plate ([…] pore size, Millipore). The filter plate was precoated with 5% hexadecane in hexane. Stock solutions of compounds were diluted to 1 mM in a donor buffer (pH 6.5). Lucifer yellow was added to the apical wells of the precoated MultiScreen plate containing compound donor solution. The donor buffer solutions were spiked with each test compound (1 mM). The acceptor-buffer solution was prepared by adding 10 μL DMSO to 990 μL acceptor buffer (pH 7.4) and 250 μL were added to the basolateral (acceptor) wells. The donor plate was carefully inserted into the acceptor plate and incubated at room temperature for 4 h. After the incubation period, 50 μL of samples from the acceptor plate were transferred to a round bottom 96-well plate, together with 30 μL of donor buffer for matrix matching. Theoretical equilibrium samples for each test compound were prepared by adding 150 μL of donor solutions to 250 μL acceptor solutions and left at room temperature. These theoretical equilibrium samples represent complete transfer of the compound into the donor well. For the theoretical equilibrium samples, 80 μL were added to the analysis plate. Lastly, 160 μL of the internal standard carbamazepine (0.1 μM) was added to all acceptor and equilibrium samples. A portion of the sample containing Lucifer yellow was analyzed on a BioRad iMark^TM Microplate Absorbance Reader (BioRad, Hercules, CA, United States; excitation 490 nm, emission 510–570 nm) to determine that P app was within the acceptable range (<50 nm/s). Samples were analysed using reverse phase Gemini NX-C18 column (5 μM, 2.1 mm × 50 mm) with a Shimadzu HPLC coupled with an AB Sciex 3200 Q TRAP MS). The Papp for each compound was determined using. C=VD × VA/(VD+VA) ×A×t where VA = volume of donor compartment (0.15 cm^3), VD = volume of acceptor compartment (0.25 cm^3), A = accessible filter area (0.24 cm^2) and t = incubation time (14,400 s). […]
A general note: PAMPA measures passive passage across an artificial lipid membrane.

The nature of data set [5]: Plasma protein binding (ultracentrifugation). It counts as in vitro ADME. Conditions: pooled plasma; human plasma; read-out: Bound to plasma proteins (converted). As for the experimental part: as §1
Data set [6] can be described thus: Kinetic solubility in PBS (HPLC-DAD). It counts as physicochemical. Conditions: phosphate buffer saline (PBS); for solubility kinetic at 2 h: aqueous buffer, kinetic from dmso stock. On the procedure:
Stock concentrations of test samples (10 mM) were prepared in DMSO and diluted to a final concentration of […] in phosphate buffer saline (PBS) solutions at pH 2, 6.5, and 7.4 in flat-bottomed 96-well plates. A three-point calibration curve of each control and test compound was prepared from stock solutions in DMSO. Plates were agitated on an orbital shaker at room temperature for 2 h at 200 rpm and subsequently analysed using a reverse phase Gemini NX-C18 column (5 μM, 2.1 mm × 50 mm) with an Agilent 1,200 Rapid Resolution HPLC and diode array detection.

Data set [7] in a line: Metabolic stability in mouse liver microsomes. The format is in vitro ADME. On the procedure:
A 5-point metabolic stability assay in human and mouse liver microsomes were performed in duplicate in 96-well plates. Stock solution of RMB005, −059 and 060 prepared in DMSO were individually incubated at 37°C in mouse and pooled human liver microsomes (0.4 mg/mL). An aliquot was removed at 0 min and quenched with ice cold acetonitrile containing the internal standard carbamazepine (0.1 μM). The cofactor NADPH was added, and the reactions were subsequently stopped at time points 5, 10, 30, and 60 min by removal of an aliquot and quenching with ice cold acetonitrile containing the internal standard. The supernatant of all samples were analysed via LC-MS/MS analysis (reverse phase Gemini NX-C18 column and Shimadzu HPLC and AB Sciex 3200 Q TRAP MS). Calculation of in vitro t1/2, intrinsic clearance rate (CLint) and predicted in vivo clearance (CLH) was carried out using the following equations ([Obach 1999]). CLintClint= 0.693/t1/2(min) ×Volume of incubation (μL)/microsomal protein (μg) Where t1/2 is calculated in minutes.
Predicted in vivo CLH CLH=Q × fu(plasma)×CLint/fu(mic)/Q+ fu(plasma)× CLint/fu(mic) Where Q is the hepatic blood flow of mouse (90 mL/min/kg) or human (20.7 mL/min/kg). Fu(plasma) is the unbound drug fraction in the plasma and fu(mic) is the unbound fraction in the microsomes.
The equation below was used in the case of RMB059 and -060, where protein-binding data were not available. CLH=Q × CLint/Q+ CLint

Regarding `CCCCCCCCCCOc1cc2c(=O)c(C(=O)NCCOCCO)c[nH]c2cc1OCC` [RMB005], the 50% inhibitory concentration (IC50) in data set [1] (Pf NF54, read-out: NF54 IC50 (line in the PK figures, in vitro IC50 in the discussion)) is 40 nM; in data set [1] (read-out: IC50 against Pf NF54) it was 40.4 nM. The compound also showed a Bound to microsomes in data set [2] of 99%. Besides, the log distribution coefficient (logD) at 2 h in data set [3] worked out at 3.2. Besides, the Papp at 4 h, 1 mM in data set [4] is 0.501 ×10⁻⁶ cm/s. Also, in data set [5], the fraction unbound at 1 h is 0.08. In addition, the solubility (kinetic) at 2 h in data set [6] (PBS pH 2, read-out: Kinetic solubility pH 2) was below 5 µM; in data set [6] (PBS pH 6.5, read-out: Kinetic solubility pH 6.5), below 5 µM; in data set [6] (PBS pH 7.4, read-out: Kinetic solubility pH 7.4) it was below 5 µM. Moreover, in data set [6] (all pH levels tested (pH 2, 6.5, 7.4)), the solubility at 2 h was below 5 µM. Further, the half-life in data set [7] (mouse liver microsomes, NADPH, read-out: Degradation half-life MLM) turned out to be 72.9 min. Moreover, the CLint scaled in data set [7] (mouse, liver microsomes, calculated from t1/2 in MLM, read-out: In vitro CLint MLM) is 104 mL/min/kg. The “Estimated in vivo CLH MLM” value in data set [7] (protein binding data included) was 81.2 mL/min/kg.

One may read the IC50 as the concentration needed to halve the response being measured. The term logD denotes lipophilicity at a set pH, counting ionised and neutral species. A lower logD goes with lower lipophilicity. As a reminder, the solubility (kinetic) is solubility judged after dilution from a stock solution rather than from solid. As usually defined, the solubility is the concentration that dissolves in the medium under given conditions. A high value points to much dissolved substance. Broadly, the half-life is how long it takes for the measured level to halve.
